The values below are quoted from earlier work in patent EP3569066A1, “ECOLOGICAL FORMULA HAVING MULTIPLE ANTIMICROBIAL ACTION (BACTERICIDAL, FUNGICIDAL AND ANTI-VIRAL) BASED ON COMMERCIAL MOLECULES” (Arias Dipre, Juan José, priority 2017, dated 2018).

For this data set the following is noted: 0.1N solution.

The structures appear in SMILES notation. Where two headings read alike, the source gives them in different places.

As to `O=C(O)CC(O)(CC(=O)O)C(=O)O` [Ingredient 1, 2-HYDROXY-1, 2, 3 TRI[…]], the pH is 2.2. Moreover, for the setting “listed as E”, the pH is on record as 2.2 (0.1 N).
